The results in this text go back to patent US8586505B2 (SDS Biotech K. K., priority 2009, dated 2013).

Holding throughout (assay type): in vivo
Test [1] has as its system Pseudoperonospora cubensis. Nature of the test: Test of examining control effect on Pseudoperonospora cubensis (potted cucumber plants). The following applies: 96 h, 10% wettable powder adjusted to 125 ppm, 15 ml/pot sprayed on potted cucumber plants one day before spray inoculation, assessed after 1 day wet chamber and 3 days greenhouse, read-out: Determination of control effect (preventive value) on Pseudoperonospora cubensis. A digest of the protocol:
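Preventive treatment: 125 ppm sample agent solution (from 10% wettable powder) sprayed at 15 ml/pot on 2.5-leaf Sagamihanjiro cucumbers, then P. cubensis inoculated next day at 1.0×10^4 cells/ml. Incubation was 1 day wet at 21° C plus 3 days greenhouse. Lesion area rate compared with untreated gives preventive value (≥60% high).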

The subject of test [2] is Sphaerotheca fuliginea. In words: Test of examining control effect on Sphaerotheca fuliginea (potted cucumber plants). The following applies: Podosphaera fuliginea, 336 h; 10% wettable powder adjusted to 125 ppm, 15 ml/pot sprayed on potted cucumber plants one day before spray inoculation; assessed after 14 days in greenhouse; read-out: Determination of control effect (preventive value) on Sphaerotheca fuliginea. In a few lines: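 Control effect rated high at preventive value 60–100% and low below 60%, from lesion area relative to untreated plants 14 days after spray inoculation with S. fuliginea (1.0×10^5 cells/ml). Compound applied at 125 ppm as wettable-powder spray one day before inoculation, on 2nd-leaf-stage Sagamihanjiro cucumber.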

Test [3] has as its system Phytophthora infestans. In words: whole plant or invertebrate. The following applies: in Solanum lycopersicum, 96 h, read-out: Determination of control effect (preventive value).

For `C/C(C#N)=C/C#CCCNc1ncnc2ccccc12` [compound 93], the pest or weed control at 125 µg/mL in test [1] and in test [2] was 60 to 100% each time. In addition, in test [3], the pest or weed control at 125 ppm lay within 60 to 100%.

Regarding `COCc1ccccc1C#CCCNc1ncnc2c(F)cccc12` [compound 315], the pest or weed control at 125 µg/mL in test [1] and in test [2] was 60 to 100% throughout. Further, in test [3], the pest or weed control at 125 ppm lay in the range of 60 to 100%.

`COCc1ccccc1C#CCCNc1ncnc2c(C)cc(C)cc12` [compound 341]: the pest or weed control at 125 µg/mL in test [1] was 60 to 100%; in test [2], 0 to 60%. The pest or weed control at 125 ppm in test [3] is 0 to 60%.

Regarding `Cc1cc(C)c(C#CCCNc2ncnc3ccccc23)c(C)c1` [compound 181], the pest or weed control at 125 µg/mL in test [1] and in test [2] was 60 to 100% in each case. Moreover, in test [3], the pest or weed control at 125 ppm was in the range of 0 to 60%.

`Clc1cccc(C#CCCNc2ncnc3sccc23)c1` [compound 15]: the pest or weed control at 125 µg/mL in test [1] and in test [2] was 60 to 100% throughout. Further, in test [3], the pest or weed control at 125 ppm lay in the range of 0 to 60%.

With `COCc1ccc(C)cc1C#CCCNc1ncnc2ccccc12` [compound 144], the pest or weed control at 125 µg/mL in test [1] and in test [2] was 60 to 100% throughout. In addition, the pest or weed control at 125 ppm in test [3] was 60 to 100%.

On to `Cc1ccsc1C#CCCNc1ncnc2ccccc12` [compound 208], for which the pest or weed control at 125 µg/mL in test [1] and in test [2] was 60 to 100% each time. Also, the pest or weed control at 125 ppm in test [3] was in the range of 60 to 100%.

In the case of `CC(CC#Cc1ccccc1Cl)Nc1ncnc2ccccc12` (stereo not drawn) [compound 272], the pest or weed control at 125 µg/mL in test [1] and in test [2] was 60 to 100% each time. Besides, the pest or weed control at 125 ppm in test [3] fell in the range of 60 to 100%.

With `CC(CC#Cc1ccc(Cl)cc1C(F)(F)F)Nc1ncnc2cccc(F)c12` (stereo not drawn) [compound 346], the pest or weed control at 125 µg/mL in test [1] and in test [2] was 60 to 100% in each case. The pest or weed control at 125 ppm in test [3] is 0 to 60%.

Regarding `COC(=O)c1ccc(C#CCCNc2ncnc3sccc23)cc1` [compound 31], the values for the pest or weed control at 125 µg/mL in test [1] and in test [2] were 60 to 100% and 0 to 60%, respectively. Besides, in test [3], the pest or weed control at 125 ppm fell in the range of 0 to 60%.

For the compound `COCc1ccccc1C#CCCNc1ncnc2cc(F)c(F)cc12` [compound 319], the pest or weed control at 125 µg/mL in test [1] and in test [2] was 60 to 100% in each case. Also, the pest or weed control at 125 ppm in test [3] is 60 to 100%.

For `COc1ccccc1C#CCC(C)Nc1ncnc2sccc12` (stereo not drawn) [compound 236], the pest or weed control at 125 µg/mL in test [1] and in test [2] was 60 to 100% throughout. Besides, the pest or weed control at 125 ppm in test [3] lay within 0 to 60%.

Regarding `C(#Cc1cscn1)CCNc1ncnc2ccccc12` [compound 210], the pest or weed control at 125 µg/mL in test [1] and in test [2] was 60 to 100% each time. The pest or weed control at 125 ppm in test [3] fell in the range of 60 to 100%.

For `C[Si](C)(C)c1ccc(C#CCCNc2ncnc3ccccc23)cc1` [compound 111], the pest or weed control at 125 µg/mL in test [1] and in test [2] was 60 to 100% in each case. Also, the pest or weed control at 125 ppm in test [3] was in the range of 0 to 60%.

As to `Cc1ncnc(NC(C)CC#Cc2ccccc2)c1Cl` (stereo not drawn) [compound 389], the pest or weed control at 125 µg/mL in test [1] and in test [2] was 60 to 100% throughout. Moreover, the pest or weed control at 125 ppm in test [3] is 0 to 60%.

In the case of `C(#Cc1cncc2ccccc12)CCNc1ncnc2ccccc12` [compound 192], the pest or weed control at 125 µg/mL in test [1] is 60 to 100%; in test [2], 0 to 60%. Also, in test [3], the pest or weed control at 125 ppm lay within 0 to 60%.

For `FC(F)(F)c1ccccc1C#CCCNc1ncnc(Cl)c1Br` [compound 367], the pest or weed control at 125 µg/mL in test [1] and in test [2] was 60 to 100% throughout. Besides, the pest or weed control at 125 ppm in test [3] is 0 to 60%.

Regarding `COCc1ccc2ccccc2c1C#CCCNc1ncnc2ccccc12` [compound 185], the pest or weed control at 125 µg/mL in test [1] was 60 to 100%; in test [2], 0 to 60%. For the same compound, the pest or weed control at 125 ppm in test [3] was in the range of 0 to 60%.

For the compound `CC(C)OCc1ccccc1C#CCCNc1ncnc2ccccc12` [compound 154], the pest or weed control at 125 µg/mL in test [1] and in test [2] was 60 to 100% each time. Besides, the pest or weed control at 125 ppm in test [3] fell in the range of 60 to 100%.

Regarding `CC(C)CC#CCCNc1ncnc2sccc12` [compound 7, 4-(6-Methyl-3-heptynylamino)thieno[2,3-d]pyrimidine], the pest or weed control at 125 µg/mL in test [1] and in test [2] was 60 to 100% each time. Moreover, in test [3], the pest or weed control at 125 ppm lay in the range of 60 to 100%.

As for `FC(F)(F)c1ccc(C#CCCNc2ncnc3ccccc23)nc1` [compound 197], the pest or weed control at 125 µg/mL in test [1] and in test [2] was 60 to 100% throughout. Besides, in test [3], the pest or weed control at 125 ppm was in the range of 0 to 60%.

For the compound `COCc1ccccc1C#CCCNc1ncnc2cc(Br)ccc12` [compound 320], the pest or weed control at 125 µg/mL in test [1] and in test [2] was 60 to 100% each time. Also, the pest or weed control at 125 ppm in test [3] fell in the range of 0 to 60%.

For `CC(CC#Cc1csc(Oc2ccccc2)n1)Nc1ncnc2ccccc12` (stereo not drawn) [compound 293], the pest or weed control at 125 µg/mL in test [1] and in test [2] was 60 to 100% each time. In addition, the pest or weed control at 125 ppm in test [3] fell in the range of 60 to 100%.

With `COCc1ccccc1C#CCCNc1ncnc(Cl)c1C` [compound 363], the pest or weed control at 125 µg/mL in test [1] and in test [2] was 60 to 100% throughout. In test [3], the pest or weed control at 125 ppm is 60 to 100%.

Regarding `C(#Cc1csc(-c2cccs2)n1)CCNc1ncnc2sccc12` [compound 79], the pest or weed control at 125 µg/mL in test [1] and in test [2] was 60 to 100% throughout. Further, in test [3], the pest or weed control at 125 ppm fell in the range of 0 to 60%.

Regarding `FC(F)(F)c1ccccc1C#CCCNc1ncnc2sccc12` [compound 25], the pest or weed control at 125 µg/mL in test [1] and in test [2] was 60 to 100% each time. The pest or weed control at 125 ppm in test [3] is 60 to 100%.

For `Cc1ncnc(NC(C)CC#Cc2ccc(Cl)cc2C(F)(F)F)c1Br` (stereo not drawn) [compound 387], the pest or weed control at 125 µg/mL in test [1] and in test [2] was 60 to 100% throughout. In test [3], the pest or weed control at 125 ppm is 0 to 60%.

With `Clc1ccccc1C#CCCNc1ncnc2sccc12` [compound 14], the pest or weed control at 125 µg/mL in test [1] and in test [2] was 60 to 100% throughout. The pest or weed control at 125 ppm in test [3] lay in the range of 0 to 60%.

Regarding `COCc1ccccc1C#CCCNc1ncnc2ccc(Br)cc12` [compound 321], the pest or weed control at 125 µg/mL in test [1] and in test [2] was 60 to 100% each time. Moreover, in test [3], the pest or weed control at 125 ppm lay in the range of 0 to 60%.

As to `COCc1ccccc1C#CCCNc1ncnc2ccc(-c3ccccc3F)cc12` [compound 334], the pest or weed control at 125 µg/mL in test [1] lay in the range of 60 to 100%; in test [2], 0 to 60%. Further, the pest or weed control at 125 ppm in test [3] was 0 to 60%.

For the compound `Cc1ccc(Oc2ccc(C#CCCNc3ncnc4ccccc34)cc2)cc1` [compound 186], the pest or weed control at 125 µg/mL in test [1] was 0 to 60%; in test [2], 60 to 100%. Moreover, the pest or weed control at 125 ppm in test [3] was in the range of 0 to 60%.

Consider `CC(C)(C)[Si](C)(C)OCc1nc(C#CCCNc2ncnc3sccc23)cs1` [compound 71], for which the pest or weed control at 125 µg/mL in test [1] and in test [2] was 60 to 100% each time. The pest or weed control at 125 ppm in test [3] lay within 60 to 100%.
